Laboratory results published in patent US4762848A, “1,3-thiazoles and their use as immunomodulators” (Hoechst Aktiengesellschaft, priority 1985, dated 1988).

Key:
[1] = test system: cellular immune response (DTH reaction) to sheep erythrocytes; test: Delayed type hypersensitivity (DTH) foot swelling reaction to sheep erythrocytes; type: in vivo, female NMRI mice; settings: mice, i.p. and p.o.
Method: Effect On The Cellular Immunological Reaction, of the Delayed Type, to Sheep Erythrocytes (Delayed Type Hypersensitivity, DTH)
Either 10^6 or 10^9 red blood cells from sheep were administered intravenously to each animal in groups of 5 female NMRI mice weighing 18-20 g. Sheep erythrocytes are regarded in immunology as a standard test substance (antigen) for the induction of cellular and humoral immune reactions. In particular, this test provides information about the functioning of the T-cell-dependent component (T-helper cells) of the immune system. The test substance obtained as in exemplary embodiment 7 ([2-(3-carboxy-1-propylthio)-4 -methyl-1,3-thiazol-5-yl]acetic acid) was administered intraperitoneally and perorally, respectively, in the concentrations 10-100 mg/kg in physiological saline solution on days -3, -2, -1 and 0.After 5 days, each animal received 2×10^8 sheep erythrocytes injected into the underside of the foot and, 24 hours later, the swelling of the foot was measured. The foot swelling is induced by a skin reaction of the delayed type (delayed type hypersensitivity, DTH) and is, as is known to the expert, a measure of the cellular immune response (Collins, F. M. and Mackaness, G. B., J. Immunol. 101, 830-845, 1968). […]

[2] = test system: mouse peritoneal macrophages; test: Release of lysosomal hydrolase enzymes from peritoneal macrophages of treated mice; type: in vivo, NMRI mice; settings: for N-Ac-Glu % release: N-acetyl-β-D-glucosaminidase; for β-Gal % release: β-galactosidase; for β-Glu % release: β-glucuronidase
Method: (§1) This entailed investigation of the effect of the test substance obtained as in exemplary embodiment 7 on the stimulation of peritoneal macrophages in 6-8 week old NMRI mice. Female mice received the test substance in parenteral or oral doses of 25 mg/kg, 50 mg/kg, 100 mg/kg and 200 mg/kg. Buffered saline solution was administered to a control group. The mice were sacrificed three days after the injections, and the peritoneal macrophages of the animals were examined for their state of activation. The secretion of the lysosomal enzymes (β-galactosidase, β-glucuronidase and N-acetyl-β-D-glucosaminidase) was determined as one measure of macrophage activation. […] The level of oxidative metabolism in macrophages is taken as another measure of their state of activation. This activity is measured with the assistance of a biolumate by determination of the chemiluminescence.
(§2) For this purpose, either 3×10^6 macrophages were cultured with 1 ml of TC 199 culture medium in Petri dishes of diameter 30 mm or 10^6 macrophages were cultured with 100 μl of medium in round-bottomed polyethylene tubes (for determination of the chemiluminescence), with 5% CO2 and at 37° C.
(§3) After incubation for one hour, the cultures were washed to remove floating cells. The chemiluminescence (tube culture) was then determined directly, whereas the Petri dishes were incubated for a further 24 hours at 37° C. and then the enzyme and pinocytosis activities in the cultures were determined.
It can be seen from Table 3 that macrophages from control mice release only small amounts of lysosomal enzymes (β-glucuronidase, β-galactosidase and N-acetyl-β-D-glucosaminidase) into the culture supernatant. […] It is evident that the test substance has a stimulant action on macrophage activity and contributes to an increase in enzyme release.

[3] = test system: mouse peritoneal macrophages; test: Pinocytosis of colloidal gold (198Au) by peritoneal macrophages of treated mice; type: in vivo, NMRI mice
Method: as §1, §2, §3
The quantitative determination of the pinocytosis activity of mononuclear phagocytes was carried out by the method of Davies et al. (Davies, P., Allison, A. C. and Haswell, A. D.; Biochem. Biophys. Res. Com. 52, 627, 1973). Radioactive colloidal gold (^198 Au) with a particle size of 20 nm and a specific activity of 4-12 mCi/mg of Au was used for this. The results in Table 4 illustrate the effect of the test substance obtained as in Example 7 on the efficiency of endocytosis.

[4] = test system: macrophages; test: Stimulation of macrophage activity (chemiluminescence), relative to the compound from Example 7; type: in vivo, NMRI mice; settings: 100 mg/kg, 1 × i.p. day 0; relative to Example 7 = 100%
Method: as §1, §2, §3
NMRI mice were treated with the compounds according to the invention as described in experiment 2.
The macrophage function (chemiluminescence and enzyme activity) was checked as a test to determine the immunostimulation.
It can be seen from the table that in comparison with macrophages from untreated animals, the chemiluminescence reaction of these cells was also greatly stimulated by all the test substances, and their content of lysosomal enzymes was markedly raised.

For `Cc1nc(SCCCC(=O)O)sc1CC(=O)O` [Example 7, [2-(3-Carboxy-1-propylthio)-4-methyl-1,3-thiazol-5-yl]acetic acid], the “dose for optimum stimulation of the cellular immune response” value [1] was 20 to 40 mg/kg, the N-Ac-Glu % release ([2]; 25 mg/kg, 1 × i.p.) was 17.2% and the N-Ac-Glu % release ([2]; 25 mg/kg, 1 × p.o.) was 15.4%. The N-Ac-Glu % release ([2]; 50 mg/kg, 1 × i.p.) was 26.0%, the N-Ac-Glu % release ([2]; 50 mg/kg, 1 × p.o.) was 22.8% and the N-Ac-Glu % release ([2]; 100 mg/kg, 1 × i.p.) was 40.8%. It also gave a N-Ac-Glu % release ([2]; 100 mg/kg, 1 × p.o.) of 37.3%, a N-Ac-Glu % release ([2]; 200 mg/kg, 1 × i.p.) of 51.5% and a N-Ac-Glu % release ([2]; 200 mg/kg, 1 × p.o.) of 45.2%. It also gave a β-Gal % release ([2]; 25 mg/kg, 1 × i.p.) of 24.1%, a β-Gal % release ([2]; 25 mg/kg, 1 × p.o.) of 20.4% and a β-Gal % release ([2]; 50 mg/kg, 1 × i.p.) of 33.5%. For the same compound, the β-Gal % release ([2]; 50 mg/kg, 1 × p.o.) was 26.9%, the β-Gal % release ([2]; 100 mg/kg, 1 × i.p.) was 52.9% and the β-Gal % release ([2]; 100 mg/kg, 1 × p.o.) was 43.6%. For the same compound, the β-Gal % release ([2]; 200 mg/kg, 1 × i.p.) was 65.4%, the β-Gal % release ([2]; 200 mg/kg, 1 × p.o.) was 54.8% and the β-Glu % release ([2]; 25 mg/kg, 1 × i.p.) was 20.0%. The β-Glu % release ([2]; 25 mg/kg, 1 × p.o.) was 17.5%, the β-Glu % release ([2]; 50 mg/kg, 1 × i.p.) was 30.9% and the β-Glu % release ([2]; 50 mg/kg, 1 × p.o.) was 25.1%. For the same compound, the β-Glu % release ([2]; 100 mg/kg, 1 × i.p.) was 42.8%, the β-Glu % release ([2]; 100 mg/kg, 1 × p.o.) was 38.2% and the β-Glu % release ([2]; 200 mg/kg, 1 × i.p.) was 58.2%. For the same compound, the β-Glu % release ([2]; 200 mg/kg, 1 × p.o.) was 49.8%, the “efficiency of pinocytosis of mouse macrophages” value (from here on “efficiency”) ([3]; 25 mg/kg, 1 × intraperitoneal) was 0.415 × 10^3 cpm and the “efficiency” value ([3]; 25 mg/kg, 1 × oral) was 0.365 × 10^3 cpm. For the same compound, the “efficiency” value ([3]; 50 mg/kg, 1 × intraperitoneal) was 0.558 × 10^3 cpm, the “efficiency” value ([3]; 50 mg/kg, 1 × oral) was 0.448 × 10^3 cpm and the “efficiency” value ([3]; 100 mg/kg, 1 × intraperitoneal) was 0.718 × 10^3 cpm. The “efficiency” value ([3]; 100 mg/kg, 1 × oral) was 0.661 × 10^3 cpm, the “efficiency” value ([3]; 200 mg/kg, 1 × intraperitoneal) was 0.862 × 10^3 cpm and the “efficiency” value ([3]; 200 mg/kg, 1 × oral) was 0.739 × 10^3 cpm. The “Macrophage activity: Chemiluminescence, relative activity” value [4] was 100%.
